{"source": "patent US11199553B2", "about": "“25-OH vitamin D derivatives for determining vitamin D metabolites” (ORGENTEC D[…], priority 2013, dated 2021)", "test_system": "25OHD antibody", "details": "even at a 25OHD3 concentration of 5 ng/ml; 7.5 ng/ml tracer; vitamin D-free serum matrix; OD 450 nm", "method": "For the ELISA detection of the specific 25OHD competition, 80 μl of vitamin D release reagent were added to serial dilutions of 25OHD3 in vitamin D-free serum matrix (SerCon, Seracare Inc.) in concentrations of 0, 5, 10, 20, 20, 50, 100, 200, 300 ng/ml in the presence of 7.5 ng/ml of biotin-25OHD tracer reagent and applied to microtitre plate wells coated with an anti-25OHD antibody. The binding of the tracer on the basis of the competing 25OHD concentration was determined with peroxidase-labelled streptavidin and a tetramethylbenzidine (TMB) colour reaction by measuring the OD 450 nm.\nAn antibody against 25-OH-vitamin D3 or 25-OH-vitamin D2 was diluted in Tris-buffered saline pH 8.0 to a concentration of 1 μg/ml. The wells of a microtitre plate (Maxisorb, Nunc) were coated with 100 μl of the diluted antibody, dried at 37° C. and stored at 4° C. until the test was carried out.\nDefined concentrations of 25-OHD3 were added to vitamin D-free serum matrix (Seracon, Seracare Inc.). […] The antibody-bound biotin-25OHD tracer was detected with peroxidase-labelled streptavidin and a tetramethylbenzidine (TMB) colour reaction. After the substrate reaction had been stopped by addition of 100 μl of 50 mM phosphoric acid, the optical density was measured at 450 nm.", "data": [{"substance": "3α-[α-biotinamido-ω-dodeca(ethylene glycol)-amido]-25-hydroxy-deoxyvitamin D3 [VD1]", "values": [{"measurement": "competition of the tracer by 25OHD3 for binding sites on the 25OHD antibody", "value": "specific competition"}]}]}
